{"source": "paper PMC6628648", "about": "“Enabling microbial syringol conversion through structure-guided protein engineering” (Proceedings of the National Academy of Sciences of the …, 2019)", "key": {"[1]": {"target": "T1, WT GcoA (Amycolatopsis sp., UniProt P0DPQ7)", "T1 construct": "GST (N, cleaved yes); made in house; host or cells: E. coli Rosetta 2 (DE3)", "T1 sequence (P0DPQ7 1-407)": "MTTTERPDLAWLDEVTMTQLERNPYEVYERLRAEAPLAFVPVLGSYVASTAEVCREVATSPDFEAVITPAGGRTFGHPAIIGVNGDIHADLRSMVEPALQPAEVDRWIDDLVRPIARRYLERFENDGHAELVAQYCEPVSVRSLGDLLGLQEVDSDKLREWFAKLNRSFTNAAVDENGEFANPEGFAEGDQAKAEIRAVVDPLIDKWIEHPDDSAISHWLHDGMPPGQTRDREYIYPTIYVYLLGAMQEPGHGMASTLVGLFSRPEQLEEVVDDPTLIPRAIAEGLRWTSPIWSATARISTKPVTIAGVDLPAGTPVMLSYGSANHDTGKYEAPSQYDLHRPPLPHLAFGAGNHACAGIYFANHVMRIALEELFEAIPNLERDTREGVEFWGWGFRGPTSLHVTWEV", "test": "NADH consumption assay (steady-state kinetics, specific activity) with GcoB", "type": "biochemical, Amycolatopsis sp. ATCC 39116", "conditions": "for Specific activity: WT, NADH consumption, saturating (200 µM) substrate, pH 7.5, 25°C"}, "[2]": {"target": "GcoA-F169A (Amycolatopsis sp., UniProt P0DPQ7, F169A)", "sequence (P0DPQ7 whole entry F169A)": "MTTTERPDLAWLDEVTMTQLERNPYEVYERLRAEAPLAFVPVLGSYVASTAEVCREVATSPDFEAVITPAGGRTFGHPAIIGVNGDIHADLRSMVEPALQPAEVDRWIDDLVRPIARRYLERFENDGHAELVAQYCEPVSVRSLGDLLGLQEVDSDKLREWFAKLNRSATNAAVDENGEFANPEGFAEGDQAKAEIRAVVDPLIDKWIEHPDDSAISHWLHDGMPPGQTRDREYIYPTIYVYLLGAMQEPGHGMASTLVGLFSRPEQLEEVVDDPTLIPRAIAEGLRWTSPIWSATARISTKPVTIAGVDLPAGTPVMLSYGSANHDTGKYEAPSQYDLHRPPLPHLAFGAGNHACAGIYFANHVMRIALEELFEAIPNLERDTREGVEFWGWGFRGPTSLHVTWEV", "test": "NADH consumption assay (steady-state kinetics, specific activity) with GcoB", "conditions": "for Specific activity: NADH consumption, saturating (200 µM) substrate, pH 7.5, 25°C; for NADH disappearance (specific activity): Table S1, saturating substrate"}, "[3]": {"target": "T2, GcoA variant F169H (Amycolatopsis sp., UniProt P0DPQ7, F169H)", "T2 construct": "GST (N, cleaved yes); made in house; host or cells: E. coli Rosetta 2 (DE3)", "T2 sequence (P0DPQ7 whole entry F169H)": "as the sequence (P0DPQ7 whole entry F169A) above, with A169H counted along it", "test": "NADH consumption assay (specific activity) with GcoB", "type": "biochemical, Amycolatopsis sp. ATCC 39116", "conditions": "saturating (200 µM) substrate, pH 7.5, 25°C"}, "[4]": {"target": "T3, GcoA variant F169L (Amycolatopsis sp., UniProt P0DPQ7, F169L)", "T3 construct": "GST (N, cleaved yes); made in house; host or cells: E. coli Rosetta 2 (DE3)", "T3 sequence (P0DPQ7 whole entry F169L)": "as the sequence (P0DPQ7 whole entry F169A) above, with A169L counted along it", "test": "End-point coupling assay (formaldehyde produced per NADH consumed)", "type": "biochemical, Amycolatopsis sp. ATCC 39116", "conditions": "molar ratio formaldehyde produced per NADH consumed, 200 µM NADH, 200 µM aromatic substrate", "method": "(§1) The [formaldehyde] produced on reaction with GcoA-F169A and substrates was determined using a colorimetric assay with tryptophan ([28], [42]); details are provided in SI Appendix. […]\n(§2) vi = Vmax[S]/(KM + [S]) (4) […]\n(§3) Formaldehyde determination. A colorimetric assay using tryptophan can be used to quantify the amount of formaldehyde produced in F169 GcoA/B reactions with guaiacol, syringol, or 3MC. 0.2 µM each of F169 GcoA mutants and GcoB were dissolved in air-saturated buffer (25 mM HEPES, 50 mM NaCl) in a cuvette at pH 7.5, 25 °C. 100 µg/mL catalase was added to each reaction to capture any H2O2 formed during the uncoupled reaction. 200 μM NADH was added and the background rate recorded. 100 (guaiacol, syringol, or 3MC) or 200 (syringol) μM of substrate was then added and the reaction monitored until there was no more change, due to either substrate, NADH or O2 depletion, whichever occurred first. 200 µL of the reaction was then quenched by adding 200 µL of a 0.1% tryptophan solution in 50% ethanol and 200 µL of 90% sulfuric acid. Upon thorough mixing, 40 µL of 1% FeCl3 was added. The solution was then incubated in a heating block for 90 min at 70 °C. After cooling, the absorbance was read at 575 nm and the [formaldehyde] calculated by using ε575 nm = 4.2 mM-1 cm-1, obtained with formaldehyde as a standard (1). A negative control included everything but the substrate and was used as a baseline. […]\n(§4) The reaction of each aliquot was immediately quenched with 12.5\n(§5) μL saturated ammonium sulfate, 7% v/v H2SO4 (pH 2.0) prior to loading onto the HPLC column. [Substrate] disappearance was referenced to GcoA (0.2 µM) and fit to a linear line to determine specific activity.\n(§6) Data analysis. The consumption of NADH and subsequent production of formaldehyde and aromatic product were measured in triplicate and the error reported as ±1 standard deviation. To determine the statistical significance between NADH consumption and the products produced, the p-value was determined for all runs containing guaiacol, syringol, and 3MC. These values were calculated using two degrees of freedom, a tail value of two, and assuming a t-statistical value for unequal variances.\n(§7) Detection of H2O2 via horseradish peroxidase (HRP) and Amplex Red assay. The reaction between 100 μM guaiacol or 3MC with 0.2 μM F169A/GcoB and 100 μM NADH in air-saturated buffer (25 mM HEPES, 50 mM NaCl, pH 7.5) was monitored continuously in a quartz cuvette, using the NADH consumption assay described above. The same thing was done for syringol, but with either 100 or 200 μM NADH. When there was no longer any change in the spectra, e.g., the reaction was completed, 100 μL was removed from the cuvette and pipetted into a 96-well microplate. A 5 mL solution containing 50 μL of 10 mM Amplex Red (prepared in DMSO and stored at -20 °C) and 100 μL of 10 U/mL HRP was made up in the above buffer. 100 μL of this was added to each of the wells with each reaction sample. The plate was incubated in the dark at room temperature for 30 min, at which point the absorbance at […]\n(§8) Table S1. Rate of substrate disappearance or product appearance (specific activity) for F169A.\n(§9) Substrate NADH disappearance aromatic substrate disappearance KD (µM) […]\n(§10) Table S2. Rates of substrate disappearance and coupling efficiencies for reactions catalyzed by the GcoA-F169 variants.\n(§11) GcoA Specific activity Coupling Specific activity Coupling Specific activity (μmol Coupling variant (μmol sec-1 μmol-1 efficiency (μmol sec-1 μmol-1 efficiency sec-1 μmol-1 GcoA)a efficiency GcoA)a (%)b GcoA)a (%)b (%)b […]\n(§12) aNADH consumption was monitored continuously over time via UV/vis and quantifying with ε340 = 6.22 mM-1 cm-1 at 25°C, 25 mM HEPES, 50 mM NaCl, pH 7.5 and saturating (200 µM) concentrations of all substrates (syringol, guaiacol, and 3MC). bCalculated as the molar ratio of formaldehyde produced per NADH consumed in a fixed-time assay. Assay conditions: 0.2 µM […]"}, "[5]": {"target": "T2, GcoA variant F169H", "test": "End-point coupling assay (formaldehyde produced per NADH consumed)", "type": "biochemical, Amycolatopsis sp. ATCC 39116", "conditions": "molar ratio formaldehyde produced per NADH consumed, 200 µM NADH, 200 µM aromatic substrate", "method": "as §1, §2, §3, §4, §5, §6, §7, §8, §9, §10, §11, §12"}, "[6]": {"target": "T4, GcoA variant F169I (Amycolatopsis sp., UniProt P0DPQ7, F169I)", "T4 construct": "GST (N, cleaved yes); made in house; host or cells: E. coli Rosetta 2 (DE3)", "T4 sequence (P0DPQ7 whole entry F169I)": "as the sequence (P0DPQ7 whole entry F169A) above, with A169I counted along it", "test": "End-point coupling assay (formaldehyde produced per NADH consumed)", "type": "biochemical, Amycolatopsis sp. ATCC 39116", "conditions": "molar ratio formaldehyde produced per NADH consumed, 200 µM NADH, 200 µM aromatic substrate", "method": "as §1, §2, §3, §4, §5, §6, §7, §8, §9, §10, §11, §12"}, "[7]": {"target": "T5, GcoA variant F169V (Amycolatopsis sp., UniProt P0DPQ7, F169V)", "T5 construct": "GST (N, cleaved yes); made in house; host or cells: E. coli Rosetta 2 (DE3)", "T5 sequence (P0DPQ7 whole entry F169V)": "as the sequence (P0DPQ7 whole entry F169A) above, with A169V counted along it", "test": "End-point coupling assay (formaldehyde produced per NADH consumed)", "type": "biochemical, Amycolatopsis sp. ATCC 39116", "conditions": "molar ratio formaldehyde produced per NADH consumed, 200 µM NADH, 200 µM aromatic substrate", "method": "as §1, §2, §3, §4, §5, §6, §7, §8, §9, §10, §11, §12"}, "[8]": {"target": "T6, GcoA variant F169S (Amycolatopsis sp., UniProt P0DPQ7, F169S)", "T6 construct": "GST (N, cleaved yes); made in house; host or cells: E. coli Rosetta 2 (DE3)", "T6 sequence (P0DPQ7 whole entry F169S)": "as the sequence (P0DPQ7 whole entry F169A) above, with A169S counted along it", "test": "End-point coupling assay (formaldehyde produced per NADH consumed)", "type": "biochemical, Amycolatopsis sp. ATCC 39116", "conditions": "molar ratio formaldehyde produced per NADH consumed, 200 µM NADH, 200 µM aromatic substrate", "method": "as §1, §2, §3, §4, §5, §6, §7, §8, §9, §10, §11, §12"}, "[9]": {"conditions": "WT GcoA, apparent, 0.2 µM GcoAB, 300 µM NADH, 210 µM O2, 0–300 µM substrate, pH 7.5, 25 °C"}}, "data": [{"smiles": "COc1ccccc1O", "note": "[guaiacol, 2-methoxyphenol]", "values": [{"measurement": "Km", "setting": "[1]; [9]", "result": "60 ± 10", "unit": "µM"}, {"measurement": "kcat", "setting": "[1]; [9]", "result": "6.8 ± 0.02", "unit": "s⁻¹"}, {"measurement": "Specific activity", "setting": "[1]", "result": "5.0 ± 0.1", "unit": "μmol sec-1 μmol-1 GcoA"}, {"measurement": "Specific activity", "setting": "[2]", "result": "5.8 ± 0.8", "unit": "μmol sec-1 μmol-1 GcoA"}, {"measurement": "NADH disappearance (specific activity)", "setting": "[2]", "result": "5.8 ± 0.8", "unit": "μM s-1 μmol F169A-1"}, {"measurement": "Specific activity", "setting": "[3]", "result": "7.9 ± 3", "unit": "μmol sec-1 μmol-1 GcoA"}, {"measurement": "Coupling efficiency", "setting": "[4]", "result": "73 ± 3", "unit": "%"}, {"measurement": "Coupling efficiency", "setting": "[5]", "result": "103 ± 10", "unit": "%"}, {"measurement": "Coupling efficiency", "setting": "[6]", "result": "41 ± 10", "unit": "%"}, {"measurement": "Coupling efficiency", "setting": "[7]", "result": "105 ± 2", "unit": "%"}, {"measurement": "Coupling efficiency", "setting": "[8]", "result": "67 ± 8", "unit": "%"}]}, {"smiles": "COc1cccc(O)c1O", "note": "[3MC, 3-methoxycatechol]", "values": [{"measurement": "Specific activity", "setting": "[1]", "result": "3.2 ± 0.2", "unit": "μmol sec-1 μmol-1 GcoA"}, {"measurement": "Specific activity", "setting": "[2]", "result": "5.6 ± 0.8", "unit": "μmol sec-1 μmol-1 GcoA"}, {"measurement": "NADH disappearance (specific activity)", "setting": "[2]", "result": "5.6 ± 0.8", "unit": "μM s-1 μmol F169A-1"}, {"measurement": "Specific activity", "setting": "[3]", "result": "4.3 ± 0.4", "unit": "μmol sec-1 μmol-1 GcoA"}, {"measurement": "Coupling efficiency", "setting": "[4]", "result": "5.0 ± 4", "unit": "%"}, {"measurement": "Coupling efficiency", "setting": "[5]", "result": "28 ± 20", "unit": "%"}, {"measurement": "Coupling efficiency", "setting": "[6]", "result": "10 ± 9", "unit": "%"}, {"measurement": "Coupling efficiency", "setting": "[7]", "result": "40 ± 3", "unit": "%"}, {"measurement": "Coupling efficiency", "setting": "[8]", "result": "67 ± 8", "unit": "%"}]}, {"smiles": "COc1cccc(OC)c1O", "note": "[syringol, 2,6-dimethoxyphenol]", "values": [{"measurement": "demethylation by WT GcoA", "setting": "[1]; WT GcoA 0.2 μM, 300 μM NADH, 210 μM O2, pH 7.5, 25 °C", "result": "unable to demethylate syringol"}, {"measurement": "Specific activity", "setting": "[2]", "result": "5.1 ± 0.8", "unit": "μmol sec-1 μmol-1 GcoA"}, {"measurement": "NADH disappearance (specific activity)", "setting": "[2]", "result": "5.1 ± 0.8", "unit": "μM s-1 μmol F169A-1"}, {"measurement": "Specific activity", "setting": "[3]", "result": "3.9 ± 0.2", "unit": "μmol sec-1 μmol-1 GcoA"}, {"measurement": "Coupling efficiency", "setting": "[4]", "result": "7.8 ± 2", "unit": "%"}, {"measurement": "Coupling efficiency", "setting": "[5]", "result": "56 ± 7", "unit": "%"}, {"measurement": "Coupling efficiency", "setting": "[6]", "result": "14 ± 2", "unit": "%"}, {"measurement": "Coupling efficiency", "setting": "[7]", "result": "100 ± 10", "unit": "%"}, {"measurement": "Coupling efficiency", "setting": "[8]", "result": "85 ± 5", "unit": "%"}]}]}
